Measurements as given in a melting point compilation (Tetko et al.; mined from patent text by program, amines drawn as free bases though some values may be those of a salt).
Residues, ends and D or L forms follow the SMILES beside them. *: point of attachment. NHPhenethyl = c1ccc(CCN*)cc1

melting point | Compound
256 to 259 °C | O=C1Nc2cc(Cl)ccc2Cn2nnnc21
91 °C | CC(C)CCNCCOc1ccc2ccccc2c1
139 to 141 °C | O=C(NCc1cccc(C(F)(F)F)c1)c1sc2ccccc2c1O
130 to 131 °C | COC(=O)c1ccc2cc(CCCCc3cc4ccc(C(=O)OC)cc4o3)oc2c1
152 to 155 °C | Cc1cc(C)nc(NC(=O)NS(=O)(=O)c2cccc3c2CCCC3)n1
162 to 164 °C | O=C(CC1CCCC1)Nc1ccc2c(c1)C(=O)C(Br)CC2 (stereo unspecified)
34 °C | CCCCCCCCCCCCc1ccc(NC2CCCc3ccccc32)cc1 (stereo unspecified)
90 to 93 °C | C#CC1(OCc2cc(F)ccc2F)CCN(C(C)=O)CC1
54.3 to 55.9 °C | O=C(O)[C@@H]1CS[C@@H](CS)C1
107 to 109 °C | OCc1ccc2c(c1)ncn2-c1cccc(Br)c1
206 to 208 °C | CN1CCN(C2=Nc3cc(F)ccc3Nc3ccsc32)CC1
194 to 195 °C | CS(=O)(=O)NCCCCn1c(CCO)nc2c(N)nc3cccnc3c21
120 to 121 °C | COc1cc(Cc2cnc(NCCCCc3ncc(Br)cc3C)[nH]c2=O)ccn1
62 to 64 °C | OCC(CO)Oc1ccc(Cl)cc1
76 to 77 °C | CC(CCOS(N)(=O)=O)Oc1ccccc1 (stereo unspecified)
> 250 °C | COc1cc(C(=O)O)ccc1-c1nc2cc(Cl)c(Cl)cc2[nH]1
123 to 125 °C | CCCN(CCC)CCOc1ccc2[nH]c(C)c(C(=O)OCc3ccccc3)c2c1
123 to 125 °C | COc1ccc(NC(=O)N2C(=O)CC(c3ccc(OC)c(OC4CCCC4)c3)N2C)cc1 (stereo unspecified)
178 to 182 °C | c1ccc(COc2ccc3[nH]c(-c4ccc[nH]4)cc3c2)cc1
102 to 104 °C | COC(=O)c1ccc(Cl)nc1C1=NC(=O)C(C)(C(C)C)N1 (stereo unspecified)
210 °C | CCCc1nc(C)n2nc(S)nc2c1Cc1ccc([N+](=O)[O-])cc1
204 to 206 °C | FC(F)(F)c1n[nH]cc1-c1nc(Nc2ccccn2)cs1
209 to 212 °C | O=C(O)C1=Cc2ccc(-c3ccccc3)cc2OC1C(F)(F)F (stereo unspecified)
165 to 166 °C | COc1cc(-c2c(Cl)c(CNC(C)(C)C)nc3sc4c(c23)CCN(C(=O)c2ccccc2)C4)ccc1OC(C)C
210 to 211 °C | Clc1ccc(-c2cn3cc(Br)ccc3n2)cc1

melting point | Compound
91 to 92 °C | CC(C)Oc1ccc(/C=C/C=C/CO)cc1
180 °C | c1ccc2c(c1)C[C@H]1CSC(=Nc3csc4cnccc34)N1C2
228 °C | N#CC1=C(c2ccc3ccccc3c2)Nc2n[nH]cc2C1c1cccc2nonc12 (stereo unspecified)
> 275 °C | Cc1ccc(-n2c(-c3sc(Nc4ccc(Cl)cc4)nc3C)nc3ccccc3c2=O)cc1
204 to 206 °C | CC(=C1SC(=O)NC1=O)c1ccc(OCCOc2c(-c3ccc(F)c(F)c3)n(C)c3ccccc3c2=O)c(F)c1
117 to 118 °C | OCc1nn(-c2ccc(F)cc2)c2c1CCCC2
46 to 49 °C | CCCCCCSc1ncnc2c1ncn2C1CC(F)C(CO)O1 (stereo unspecified)
287 to 289 °C | CC(C)(C)OC(=O)Oc1nc2c(N)ncnc2n1Cc1ccccc1
182 to 183 °C | Cn1c(-c2ccc(OC3CCN(C4CCC4)CC3)cc2)nc2cccnc2c1=O
40 °C | CCCCN(c1nc(NCC(=O)OCC)nc(N(CCCC)C2CC(C)(C)NC(C)(C)C2)n1)C1CC(C)(C)NC(C)(C)C1
350 to 352 °C | Cc1nnc2nc(-c3ccccc3)c3cc([N+](=O)[O-])ccc3n12
137 to 146 °C | N#CC1=Cc2ccccc2C(N2CCN(N)CC2)c2ccccc21 (stereo unspecified)
129 to 130 °C | COc1ccc(C(O)CCS(=O)(=O)c2ccc(S(N)(=O)=O)s2)cc1 (stereo unspecified)
107 to 111 °C | COc1cc2c(Nc3cccc(Cl)c3F)ncnc2cc1OC1CCN(C(=O)[C@@H](C)O)CC1
210 °C | CCCCc1nnc2ccccc2c1Cc1ccc(-c2ccccc2C(=O)O)cc1
114 to 116 °C | C=CCC(CC=C)(C(=O)O)S(=O)(=O)c1ccc(OC)cc1
117 to 118 °C | CC(=O)NCCCCCC(=O)NC[C@@H]1CN2C(=O)C[C@H]2O1 (racemic)
164 to 165 °C | CN1CCC(N2C(=O)c3cc(Cl)ccc3Sc3ccccc32)CC1
157 to 158 °C | Cc1oc(-c2ccccc2)nc1COc1ccc(OCc2nc(-c3ccccc3)oc2CO)cc1
93 to 95 °C | BrC(Br)=Cc1ccccc1NCc1ccccc1
184 to 186 °C | O=[N+]([O-])c1ccc(-c2scc3c2OCCO3)cc1
206 to 209 °C | CCC(CC)Oc1cc(C)nc2c1COCN2c1c(C)cc(Br)cc1C
77 to 78 °C | CC(=O)N1CCC(CCCC(=O)c2ccc(F)cc2)CC1
156 °C | Nc1nc2ccc(OC(F)(F)C(F)(F)F)cc2s1
186 to 188 °C | c1coc(-c2cc3[nH]ccn3n2)c1

melting point | Compound
181 to 184 °C | Cc1cc(Cl)cc(COc2cccc(OCc3ccc4ccccc4n3)c2)c1OCc1nnn[nH]1
202 °C | O=c1oc2ccccc2c2c1-c1ccccc1OC2
90 °C | CCN(CCN(C)C)c1ccc(-c2ccnc(Nc3cc(OC)c(OC)c(OC)c3)n2)cn1
156 to 159 °C | CC[C@H](C)[C@H](NC(=O)[C@@H](N)CS)C(=O)NCCc1ccccc1 (H-Cys-Ile-NHPhenethyl)
120 to 121 °C | O=C1CC(=O)NC(c2ccc(Cl)cc2)=N1
255 °C | COc1cc(O)ccc1-c1nc2cnccc2[nH]1
189 to 191 °C | O=C(O)COc1ccc2cc(CNC(=O)c3cnn(-c4ccc(Cl)cc4)c3C(F)(F)F)ccc2c1
107 to 108 °C | O=C(NCCO)c1cc(F)cc(-c2ccc(F)c3cc(Cc4cccc(C(F)(F)F)c4)sc23)c1
81 to 82 °C | [N-]=[N+]=NC[C@H]1CN(c2cccc(F)c2)C(=O)O1
198 to 200 °C | CC1=C(c2ccncc2)SC(c2ccc(O)cc2)C(=O)N1 (stereo unspecified)
62 to 65 °C | OCCCCCCCCCCCN1CCCCC1
213 to 214 °C | CC(C)Cn1c(CNC(=O)OC(C)(C)C)c(-c2ccccc2F)c2cc(C(=O)O)ccc2c1=O
207 to 230 °C | CC1CC2=CC(=O)CCC2C2CCC3(C)C(C=O)CCC3C12 (stereo unspecified)
72 to 76 °C | O=C(O)CCCCCC(c1cc(F)ccc1F)S(=O)(=O)c1ccc(Cl)cc1 (stereo unspecified)
200 to 201 °C | O=c1oc2ccc(-c3ccc(F)cc3F)cc2c(=O)n1-c1ccccc1C(F)(F)F
153 to 155 °C | c1csc(Cn2ccnc2-c2ncc[nH]2)c1
> 330 °C | Cc1cn(-c2cc3c(cc2C(F)(F)F)[nH]c(=O)c2n[nH]c(=O)n23)c(C)n1
160 to 162 °C | CCNC1CCN(c2c(F)cc3c(=O)c(C(=O)O)cn(C4CC4)c3c2OC)CC1C (stereo unspecified)
137 to 139 °C | CCCCc1nn(-c2cccc(N)c2)c(=O)n1Cc1ccc(-c2ccccc2S(=O)(=O)NC(=O)c2ccccc2Cl)cc1
68 °C | Fc1ccc(C(=Cc2ccccc2Cl)CBr)cc1
340 °C | COc1ccc(C2=c3c(c4c(c5ccccc35)=C(c3ccc(OC)cc3)CO4)NC2)cc1
165 to 168 °C | O=C1Nc2ccc(-c3cccc(Cl)c3)cc2C2(CCCCC2)O1
248 to 250 °C | NC1=C(NC=O)C(=O)N2CCN=C2N1Cc1ccccc1
143 to 144 °C | NC(=S)C=Cc1ccc(SC(F)(F)F)cc1
191 to 192 °C | O=C(Nc1ccc2nc(-c3ccccc3)oc2n1)c1ccccc1

melting point | Compound
67 to 70 °C | C/C(N)=C/C(=O)OCCOC/C(C)=C/c1ccc(Cc2cccnc2)cc1
141 to 144 °C | C[C@]1(CN2CCC(NC(=O)OCc3ccc(C(F)(F)F)cc3)CC2)Cn2cc([N+](=O)[O-])nc2O1
232 to 234 °C | CC[C@H](C)[C@H](NC(=O)Nc1ccccc1C(F)(F)F)C(=O)N[C@H](CO)Cc1c[nH]c2ccccc12
135 to 136 °C | CC(=O)N(CCCCC(=O)O)C(c1ccccc1)c1ccccc1
334 to 337 °C | O=c1c2c[nH]c3ccncc3c-2nn1-c1ccccc1
251 to 253 °C | COc1ccc([N+](=O)[O-])c2c1CCC(C(=O)Nc1ccc(N3CCOCC3)cc1)C2 (stereo unspecified)
118 to 125 °C | CC=C1CCC2C3CCC4CC(O)CCC4(C)C3C(N)CC12C (stereo unspecified)
78 °C | CCN(CC(=O)O)c1ccc(OCC(C)(C)C)c(C#N)c1
130 to 133 °C | O=c1c2cc(Oc3ccc(Cl)cc3)ccc2ncn1Cc1cccnc1
168 to 172 °C | CC1CCC2(c3c[nH]cn3)Cc3ccccc3C12 (stereo unspecified)
237 to 239 °C | CNc1nc(-c2cccc(-c3ccc4nccn4c3)c2)c2cc(OC)c(OC)cc2n1
198 to 200 °C | COc1ccc(N2CCOCC2)c2sc(NC(=O)N(C)C3CCCCCC3)nc12
81 to 83 °C | CCOC(=O)CC(C(=O)c1ccccc1)C(=O)c1ccccc1
192 to 193 °C | COc1ccc(CCc2nnc(-c3ccc4[nH]ncc4c3)o2)cc1C(F)(F)F
207 to 208 °C | CCCn1nc2c(-c3ccccc3)cccc2c1-c1ccc(O)cc1
150 to 151 °C | COC(=O)c1cc2cc(Br)ccc2nc1C
140 to 143 °C | CCCNc1ccc(C(=O)N2CCCC(CC(=O)NC(C)C)c3ccccc32)c(Cl)c1 (stereo unspecified)
222 to 224 °C | CC(=O)NCCNC(=O)c1ccc(Cl)cc1
65 °C | N#CC(N)COc1ccccc1 (stereo unspecified)
> 300 °C | COc1ccc2c(O)c(-c3ccccc3OC)c(=O)[nH]c2c1
222 °C | CCOC(=O)c1cn(CCCl)c2cc(Cl)c(F)cc2c1=O
187 to 192 °C | Cc1ccc2c(c1)SC(C(F)(F)F)C(C(=O)O)=C2 (stereo unspecified)
250 °C | O=C(O)CC(C(=O)O)c1ccn2c(=O)c(C(=O)O)ccc2c1 (stereo unspecified)

Compound | melting point
CCN1C(=O)C(=C2C=C(N3CCCC3)CC(C)(C)C2)C(=O)N(CC)C1=S | 226 to 227 °C
NNC1=Nc2ccc(I)cc2C(c2ccccc2F)=NC1 | 179 to 181 °C
Cc1cccc(NC(=O)NC2N=C(c3ccccc3F)c3ccccc3N(Cc3cc4ccccc4o3)C2=O)c1 (racemic) | 213 to 214 °C
